From patent US12370165B2, “Hunger suppression” (TDeltaS Limited, priority 2017, dated 2025)

What was measured:
appetite = conditions: rats; cited from earlier work
[1] = General findings on esters: circulating (R)-3-hydroxybutyrate, gut uptake; type: in vivo
plasma ghrelin = test: General finding on esters: plasma ghrelin levels; conditions: in vivo
hunger = test: Visual-analogue-scale (VAS) for hunger, desire to eat and fullness after study drink; type: in vivo, human
Experimental: A randomised, single-blinded, cross-over study examined the effects of isocaloric ketone ester (KE) and dextrose drinks hunger in healthy, normal-weight participants (n=15) (FIG. 1A). An external Research Ethics Committee (14/LO/0288) approved the study, which was conducted at the University of Oxford in accordance with the Declaration of Helsinki. Participants were healthy, aged 21-42 and with no history of major illness (Anthropometric characteristics in Table 1). Participants provided written informed consent prior to inclusion. Drink order was randomised prior to commencement. Participants refrained from alcohol and caffeine for 24 h prior to each visit and consumed an identical evening meal, at the same time before each visit. Testing started at 0800 h following an overnight (>8 h) fast, with a minimum of 72 h between visits. Venous blood samples (2 ml) were obtained using a 22G catheter inserted into an antecubital vein. Fasting blood samples were collected prior to all interventions and then at regular intervals for 4 h following the study drink. At identical time points, participants completed a validated three-measure visual-analogue-scale (VAS) to assess ‘hunger,’ ‘desire to eat and’ fullness' (Stubbs et al., “The use of visual analogue scales to assess motivation to eat in human subjects: a review of their reliability and validity with an evaluation of new hand-held computerized systems for temporal tracking of hunger ratings”, Br J Nutr, 2000, 84(4):405-15). Each drink contained 1.9 kCal/kg of pHB (as ketone ester) or dextrose. Drinks were diluted to 500 ml with a commercially available citrus-flavoured drink containing 65 kCal ([…] of carbohydrate) (Glaceau, UK). The dextrose drink was taste-matched using a bitterness additive (Symrise, Holzminden, Germany). Prism6™ software was used for statistical analysis. VAS scores were measured as a distance (mm), and normalised by taking the baseline distance for each visit as ‘0’. Values are means±SEM with significance at p<0.05. […] Correlations were calculated using a two-tailed Pearson's test with a 95% confidence interval.

plasma glucose = test: Plasma glucose after study drink (commercial analyzer); type: in vivo, human
Experimental: (§1) A randomised, single-blinded, cross-over study examined the effects of isocaloric ketone ester (KE) and dextrose drinks hunger in healthy, normal-weight participants (n=15) (FIG. 1A). An external Research Ethics Committee (14/LO/0288) approved the study, which was conducted at the University of Oxford in accordance with the Declaration of Helsinki. Participants were healthy, aged 21-42 and with no history of major illness (Anthropometric characteristics in Table 1). Participants provided written informed consent prior to inclusion. Drink order was randomised prior to commencement. Participants refrained from alcohol and caffeine for 24 h prior to each visit and consumed an identical evening meal, at the same time before each visit. Testing started at 0800 h following an overnight (>8 h) fast, with a minimum of 72 h between visits. Venous blood samples (2 ml) were obtained using a 22G catheter inserted into an antecubital vein. […] Blood pHB was measured using a handheld monitor and reagent strips (Precision Xtra, Abbott Diabetes Care, UK). Blood samples were stored on ice, centrifuged and duplicate plasma aliquots stored at −80° C. and analysed within 6 weeks. Plasma glucose was assayed using a commercial analyzer (ABX Pentra, France), whereas insulin, total ghrelin, GLP-1 and PYY were measured using commercially available ELISA assays (Mercodia, Sweden and Merck Millipore, Germany).

insulin = test: Plasma insulin after study drink (ELISA); type: in vivo, human
Experimental: as §1

total ghrelin = test: Plasma total ghrelin after study drink (ELISA); type: in vivo, human
Experimental: A randomised, single-blinded, cross-over study examined the effects of isocaloric ketone ester (KE) and dextrose drinks hunger in healthy, normal-weight participants (n=15) (FIG. 1A). An external Research Ethics Committee (14/LO/0288) approved the study, which was conducted at the University of Oxford in accordance with the Declaration of Helsinki. Participants were healthy, aged 21-42 and with no history of major illness (Anthropometric characteristics in Table 1). Participants provided written informed consent prior to inclusion. Drink order was randomised prior to commencement. Participants refrained from alcohol and caffeine for 24 h prior to each visit and consumed an identical evening meal, at the same time before each visit. Testing started at 0800 h following an overnight (>8 h) fast, with a minimum of 72 h between visits. Venous blood samples (2 ml) were obtained using a 22G catheter inserted into an antecubital vein. Fasting blood samples were collected prior to all interventions and then at regular intervals for 4 h following the study drink. At identical time points, participants completed a validated three-measure visual-analogue-scale (VAS) to assess ‘hunger,’ ‘desire to eat and’ fullness' (Stubbs et al., “The use of visual analogue scales to assess motivation to eat in human subjects: a review of their reliability and validity with an evaluation of new hand-held computerized systems for temporal tracking of hunger ratings”, Br J Nutr, 2000, 84(4):405-15). Each drink contained 1.9 kCal/kg of pHB (as ketone ester) or dextrose. Drinks were diluted to 500 ml with a commercially available citrus-flavoured drink containing 65 kCal (5 g of carbohydrate) (Glaceau, UK). The dextrose drink was taste-matched using a bitterness additive (Symrise, Holzminden, Germany). Blood pHB was measured using a handheld monitor and reagent strips (Precision Xtra, Abbott Diabetes Care, UK). Blood samples were stored on ice, centrifuged and duplicate plasma aliquots stored at −80° C. and analysed within 6 weeks. Plasma glucose was assayed using a commercial analyzer (ABX Pentra, France), whereas insulin, total ghrelin, GLP-1 and PYY were measured using commercially available ELISA assays (Mercodia, Sweden and Merck Millipore, Germany).

GLP-1 = test: Plasma GLP-1 after study drink (ELISA); type: in vivo, human; conditions: after 30 min
Experimental: as §1

PYY = test: Plasma PYY after study drink (ELISA); type: in vivo, human; conditions: after 30 min
Experimental: as §1

## CC(O)CCOC(=O)CC(C)O (centres unmarked) [3-hydroxybutyl 3-hydroxybutyrate]
appetite
  appetite: suppress appetite

## C[C@@H](O)CCOC(=O)C[C@@H](C)O [(R)-3-hydroxybutyrate (R)-1,3-butanediol monoester]
[1]; in vivo
  circulating levels of (R)-3-hydroxybutyrate in the blood: high circulating levels
  uptake in the gut: surprisingly high level of uptake
Plasma ghrelin
  plasma ghrelin levels: reduce plasma ghrelin levels

## C[C@@H](O)CCOC(=O)C[C@@H](C)O [KE]
hunger; KE vs dextrose drinks
  Perceived 'Fullness': the same
hunger; for 1.5 to 4 h after drink
  'desire to eat' lowered compared to dextrose drinks: −50%
  perception of 'hunger' lowered compared to dextrose drinks: −50%
Plasma glucose; 30 min after drink, mean±SEM
  Plasma glucose levels: 5.1 ± 0.2 mM
Plasma glucose; after 90 min
  plasma glucose, difference between KE and dextrose drinks: no significant differences
insulin; 30 min after drink, mean±SEM
  Plasma insulin levels: 13±2 mU/L
insulin; after 90 min
  plasma insulin, difference between KE and dextrose drinks: no significant differences
Total ghrelin; 1 h following drink
  plasma ghrelin: 320 pg/mL
Total ghrelin; 4 h after drink
  Total ghrelin AUC lower with KE vs. dextrose: 17%
Total ghrelin; 4 h after drink, mean±SEM
  Total ghrelin AUC: 86 ± 6 ng·min/mL
Total ghrelin; between 2-4 h post-drink
  plasma ghrelin lower than after dextrose: > 100 pg/mL
GLP-1
  plasma GLP-1 levels: 5 pg/mL
PYY
  plasma PYY levels: 57 pg/mL

## (R)-3-hydroxybutyrate-glycerol partial ester
[1]; in vivo
  uptake in the gut: surprisingly high level of uptake
[1]; upon consumption of a drink
  circulating levels of (R)-3-hydroxybutyrate in the blood: high circulating levels
Plasma ghrelin
  plasma ghrelin levels: reduce plasma ghrelin levels
